In brackets after ≈: the same amount, converted by molar mass. Structures can show the parent of a compound that is named as a salt. Where two headings read alike, the source gives them in different places.
Columns and labels:
S. aureus 133 [1] = assay: Determination of the minimum inhibitory concentration (MIC), liquid dilution test; assay type: cell-based; settings: Staphylococcus aureus
Description: (§1) The MIC was determined using the liquid dilution test. Overnight cultures of the test germs (S. aureus 133) in Isosensitest bouillon were diluted 1:1000 with foetal calf serum (FCS) or Isosensitest bouillon and incubated with dilutions of the test substances (successive dilutions of 1:2).
The cultures were incubated at 37° C. for 18-24 hours. In each case the lowest concentration of substance at which no visible bacterial growth took place, was defined as MIC.

[2] = Neutral Red vitality test using J774.A1 cells; assay type: cell-based, murine; settings: mouse; J774.A1 murine macrophage cells, 72 hours with substance; vitality reduced to 50% of untreated control
Description: (§2) Compatibility tests of the exemplary compounds were carried out using cultures of eukaryotic cells. Hepatocytes (HepG2) and murine macrophage cells (J774.A1) were used as indicator for organ-specific toxicity. The murine macrophage cell line used is a particularly sensitive indicator for toxic effects.
(§3) In each case 1.2×10^4 cells were incubated at 37° C. for 24 hours. Test substances were added at different concentrations, and the cells were incubated for another 72 hours. The cells were then treated with 50 μl of Neutral Red solution (Sigma, No. N 2889) for 2 hours, washed with PBS medium and denaturated using an ethanol/glacial acetic acid mixture.
(§4) The cultures were measured in an Elisa reader at 540 nm and 630 nm. The IC50 values were extrapolated and indicate at which concentration the vitality of the cells, measured by the uptake of Neutral Red, is reduced to 50%, compared to untreated control cells.

[3] = system: α2-macroglobulin secretion of HepG2 cells; assay: Functionality of HepG2 cells: secretion of α2-macroglobulin (ELISA); assay type: cell-based; settings: human, HepG2 liver cells, HepG2, 40-48 hours, highest test concentration 10 μg/ml
Description: (§5) The vitality and functionality of human HepG2 liver cells were examined after treatment with exemplary compounds. In each case 2×10^4−1×10^5 cells were incubated in RPMI 1640 (Whittacker) with 10% heat-inactivated foetal calf serum (Gibco) at 37° C. for 40-48 hours. The incubation volume of 200 μl contained the test substances in concentrations of 10, 2 and 0.4 μg/ml.
(§6) The functionality of the HepG2 cells was examined by measuring the secretion of apo B100 and α2-macroglobulin after treatment. To this end, the protein content of the culture supernatants was determined by ELISA after incubation for 40-48 hours. Apo B100 was bound using rabbit ahLDL (1 mg/ml) and quantified using peroxidase-conjugated monoclonal antibodies (ahLDL_POD), with addition of the substrate TMB/H2O2. The optical density was measured at 450 nm.
To determine α2-macroglobulin, the ELISA system from Biodesign (Art.No. H 45205M) was used. Quantification was likewise carried out using the substrate TMB/H2O2, and measuring the optical density at 450 nm.

[4] = system: apo B100 secretion of HepG2 cells; assay: Functionality of HepG2 cells: secretion of apo B100 (ELISA); assay type: cell-based; settings: human, HepG2 liver cells, HepG2, 40-48 hours, highest test concentration 10 μg/ml
Description: as §5, §6

[5] = Vitality of HepG2 cells (Alamar Blue fluorescence); assay type: cell-based; settings: human, HepG2 liver cells, HepG2, 40-48 hours, highest test concentration 10 μg/ml
Description: as §5
The vitality was examined after addition of 20 μl Alamar Blue (Biosource, Art. No. DAL 1100) by measuring the fluorescence (excitation: 544 nm, emission: 590 nm).

[6] = Acute toxicity in mice (LD50); settings: mouse, in vivo, ip, intraperitoneal administration, dose at which 50% of treated mice survive
Description: The acute toxicity of the substances was determined by determining the dose at which 50% of the treated mice survive (=LD50). Following intraperitoneal administration of the test substances, the LD50 for TAN 1057 A,B was 100 mg/kg. The LD50 for the compound of Example 4 was >400 mg/kg.

S. aureus 133 [7] = assay: Test of antibacterial activity in vivo (infected mice, survival); settings: mice infected i.p. with 1×10^6 S. aureus 133 in 5% mucine; intravenous administration 30 minutes after infection
Description: Mice were infected with 1×10^6 bacteria of the strain S. aureus 133 in 5% mucine (i.p.) and treated by intravenous administration of the test substances 30 minutes after the infection. Without treatment, all infected animals died. The therapeutic doses for TAN 1057 A,B and the compound of Example 4 at which all infected animals survived (=ED100) was 1 mg/kg for both substances.

[8] = system: TAN 1057 A,B-resistant S. aureus 133; assay: MIC test with TAN 1057 A,B-resistant isolates from stepwise selection; assay type: cell-based; settings: Staphylococcus aureus
Description: as §1
Bacteria of the strain S. aureus 133 were incubated with different concentrations of TAN 1057 A,B for 24 hours. […] This process was repeated for several days, selecting step by step bacteria having increased resistance to TAN 1057 A,B. The MIC of highly resistant S. aureus 133 bacteria was >100 μg/ml (initial MIC: <0.1 μg/ml). The bacteria from this selection series, having an MIC of <0.1, 0.8, 25, 100 and >100 μg/ml, were used for tests. It is thus possible to identify TAN 1057 A,B derivatives having antibacterial activity against TAN 1057 A,B-resistant cells.
The S. aureus 133 isolates with medium and high resistance to TAN 1057 A,B were tested in comparison to the derivatives of the invention.

J774.A1 cells = assay: Neutral Red vitality test using J774.A1 cells; assay type: cell-based, murine; settings: compatibility tests with eukaryotic cells: hepatocytes (HepG2) and murine macrophage cells (J774.A1)
Description: as §2, §3, §4

[9] = S. aureus 133, overnight culture diluted 1:1000 with foetal calf serum, 37° C., 18-24 hours, lowest concentration without visible growth, read-out: MIC in FCS (S.aureus; μg/ml)
[10] = read-out: MIC, isolate with medium resistance to TAN 1057 A,B

| MIC (S. aureus 133 [1]; [9]) [µg/mL] | IC50 at 72 h [2] [µg/mL] | Structure (SMILES) | other results |
| --- | --- | --- | --- |
| 12.5 | – | CN(C(=O)CC(N)CCC#N)C1CNC(NC(N)=O)=NC1=O.Cl [Example 18, (3′R,S,5R,S)-5-[N-Methyl-N-(3′-amino-5′-cyanopentanoyl)amino]-5,6-dihydro-2-ureido-4(1H)-pyrimidone Hydrochloride] | – |
| 100 | 40 | CN(C(=O)C[C@@]1(N)C[C@H]1CCNC(=N)N)C1CNC(NC(N)=O)=NC1=O (stereo partly drawn) [Example 3, 5-{N-Methyl-N-2′-[1-amino-2-(2-guanidinoethyl)cyclopropyl]acetamino}-5,6-dihydro-2-ureido-4(1H)-pyrimidone Dihydrochloride] | – |
| 100 | – | COC(=O)NCCC[C@H](N)CC(=O)N(C)C1CNC(NC(N)=O)=NC1=O.Cl (stereo partly drawn) [Example 16, (3′S,5R,S)-5-[N-Methyl-N-(3′-amino-6′-methoxycarbonylaminohexanoyl)-amino]-5,6-dihydro-2-ureido-4(1H)-pyrimidone Hydrochloride] | – |
| 12.5 | – | NCCC[C@H](N)CC(=O)NC1CNC(NC(N)=O)=NC1=O (stereo partly drawn) [Example 14, (3′R,5R,S)-5-[N-(3′,6′-Diaminohexanoyl)amino]-5,6-dihydro-2-ureido-4(1H)-pyrimidone Dihydrochloride] | – |
| 3.2 | – | CN(C(=O)CC[C@@H](N)CCCN)C1CNC(NC(N)=O)=NC1=O (stereo partly drawn) [Example 11, (4′S,5R,S)-5-[N-Methyl-N-(4′,7′-diaminoheptanoyl)amino]-5,6-dihydro-2-ureido-4(1H)-pyrimidone Dihydrochloride] | – |
| 100 | – | CCN(C(=O)C[C@@H](N)CCCNC(=N)N)C1CNC(NC(N)=O)=NC1=O (stereo partly drawn) [Example 15, (3′S,5R,S)-5-[N-Ethyl-N-(3′-amino-6′-guanidinohexanoyl)amino]-5,6-dihydro-2-ureido-4(1H)-pyrimidone Dihydrochloride] | – |
| 50 | 6 | CN(C(=O)CC(N)c1cccc(NC(=N)N)c1)C1CNC(NC(N)=O)=NC1=O (stereo not drawn) [Example 2, (3′RS,5RS)-5-{N-Methyl-N-[3′-amino-3′-(3-guanidylphenyl)propionyl]amino}-5,6-dihydro-2-ureido-4(1H)-pyrimidone Dihydrochloride] | IC50 [3]: > 10 µg/mL; IC50 [4]: > 10 µg/mL; IC50 [5]: > 10 µg/mL |
| 3.2 | – | CCN(C(=O)C[C@@H](N)CCCN)C1CNC(NC(N)=O)=NC1=O (stereo partly drawn) [Example 10, (3′S,5R,S)-5-[N-Ethyl-N-(3′,6′-diaminohexanoyl)amino]-5,6-dihydro-2-ureido-4(1H)-pyrimidone Dihydrochloride] | – |
| 0.1 | 6 | CN(C(=O)C[C@@H](N)CCCCN)C1CNC(NC(N)=O)=NC1=O (stereo partly drawn) [Example 5, (3′S,5R,S)-5-[N-Methyl-N-(3′,7′-diaminoheptanoyl)amino]-5,6-dihydro-2-ureido-4(1H)-pyrimidone Dihydrochloride] | – |
| 0.2 | 3 | CN(C(=O)C[C@@H](N)CCCCNC(=N)N)C1CNC(NC(N)=O)=NC1=O (stereo partly drawn) [Example 1, (3′S,5R,S)-5-[N-Methyl-N-(3′-amino-7′-guanidinoheptanoyl)amino]-5,6-dihydro-2-ureido-4(1H)-pyrimidone Dihydrochloride] | IC50 [3]: > 10 µg/mL; IC50 [4]: > 10 µg/mL; IC50 [5]: > 10 µg/mL |
| 0.8 | 5.5 | CNC(=N)NCCC[C@H](N)CC(=O)N(C)C1CNC(NC(N)=O)=NC1=O (stereo partly drawn) [Example 6, (3′S,5R,S)-5-{N-Methyl-N-[3′-amino-6′-(N′-methylguanidino)hexanoyl]amino}-5,6-dihydro-2-ureido-4(1H)-pyrinidone Dihydrochloride] | – |
| 12.5 | – | CN(C(=O)C[C@@H](N)CCC(N)=O)C1CNC(NC(N)=O)=NC1=O.Cl (stereo partly drawn) [Example 13, (3′R,5R,S)-5-[N-Methyl-N-(3′-amino-5′-carbamoyl-pentanoyl)amino]-5,6-dihydro-2-ureido-4(1H)-pyrimidone Dihydrochloride] | – |
| 6.3 | – | CN(C(=O)C[C@H](N)CCCN)C1CNC(NC(N)=O)=NC1=O (stereo partly drawn) [Example 12, (3′R,5R,S)-5-[N-Methyl-N-(3′,6′-diaminohexanoyl)amino]-5,6-dihydro-2-ureido-4(1H)-pyrimidone Dihydrochloride] | – |
| – | – | CCN(C(=O)C[C@@H](N)CCCNC(=N)N)C1CNC(NC(N)=O)=NC1=O (stereo partly drawn) (as salt: hydrochloride) [Example 15, (3′S,5R,S)-5-[N-Ethyl-N-(3′-amino-6′-guanidinohexanoyl)amino]-5,6-dihydro-2-ureido-4(1H)-pyrimidone Dihydrochloride] | melting point: 170 to 172 °C |
| 6.3 | – | CN(C(=O)CC(N)CCCCCN)C1CNC(NC(N)=O)=NC1=O [Example 17, (3′R,S,5R,S)-5-[N-Methyl-N-(3′,8′-diaminooctanoyl)amino]-5,6-dihydro-2-ureido-4(1H)-pyrimidone Dihydrochloride] | – |
| 0.8 | 50 | CCNCCC[C@H](N)CC(=O)N(C)C1CNC(NC(N)=O)=NC1=O (stereo partly drawn) [Example 7, (3′S,5R,S)-5-[N-Methyl-N-(3′-amino-6′-ethylaminohexanoyl)amino]-5,6-dihydro-2-ureido-4(1H)-pyrimidone Dihydrochloride] | – |
| 1.6 | – | N=C(N)NCCC[C@H](N)CC(=O)NC1CNC(NC(N)=O)=NC1=O (stereo partly drawn) [Example 9, (3′R,5R,S)-5-[N-(3′-amino-6′-guanidinohexanoyl)amino]-5,6-dihydro-2-ureido-4(1H)-pyrimidone Dihydrochloride] | – |
| 1.6 | 1.8 | CN(C(=O)C[C@@H](N)CCN)C1CNC(NC(N)=O)=NC1=O (stereo partly drawn) [Example 8, (3′S,5R,S)-5-[N-Methyl-N-(3′,5′-diaminopentanoyl)amino]-5,6-dihydro-2-ureido-4(1H)-pyrimidone Dihydrochloride] | – |

| Structure (SMILES) | MIC (S. aureus 133 [1]; [9]) [µg/mL] | IC50 at 72 h [2] [µg/mL] | other results |
| --- | --- | --- | --- |
| CN(C(=O)C[C@@H](N)CNC(=N)N)C1CNC(NC(N)=O)=NC1=O (stereo partly drawn) [TAN 1057 A,B, reference compound] | 0.1 (≈ 0.305 µM) | 0.25 (≈ 0.764 µM) | MIC (S. aureus 133 [1]; S. aureus 133 before selection with TAN 1057 A,B, read-out: initial MIC): < 0.1 µg/mL; LD50 [6]: 100 mg/kg; IC50 [3]: 7 µg/mL (≈ 21.4 µM); ED100 (therapeutic dose at which all infected animals survived) (S. aureus 133 [7]): 1 mg/kg; MIC ([8]; read-out: MIC of highly resistant S. aureus 133 bacteria): > 100 µg/mL; MIC [8, 10]: 0.8 µg/mL (≈ 2.44 µM); toxicity (in words) (J774.A1 cells): pronounced toxicity in the liver and cells of the immune system |
| CN(C(=O)C[C@@H](N)CCCN)C1CNC(NC(N)=O)=NC1=O (stereo partly drawn) [Example 4, (3′S,5R,S)-5-[N-Methyl-N-(3′,6′-diaminohexanoyl)amino]-5,6-dihydro-2-ureido-4(1H)-pyrimidone Dihydrochloride] | 0.4 | 25 | LD50 [6]: > 400 mg/kg; ED100 (therapeutic dose at which all infected animals survived) (S. aureus 133 [7]): 1 mg/kg; MIC [8, 10]: 0.2 µg/mL |

From patent US6617332B1, “Tan-1057 derivatives” (Bayer Aktiengesellschaft, priority 1998, dated 2003)
